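Compound exposure: 48 hours, 5 concentrations, 96-well plates. GI50 marks 50% less growth.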 The source made the active and inactive calls. No stated cut-off is given here; in the data, active = GI50 up to about 1.1 µM and inactive = higher.
Legend:
Assay in all cases: DTP human tumour cell line panel, 48 h
RPMI-8226 = tested on: RPMI-8226
HT-29 = tested on: HT-29
OVCAR-3 = tested on: OVCAR-3
MDA-MB-231 = tested on: MDA-MB-231
SN12C = tested on: SN12C
CAKI-1 = tested on: CAKI-1
SNB-75 = tested on: SNB-75
HL-60 = tested on: HL-60
SW-620 = tested on: SW-620
NCI-H23 = tested on: NCI-H23
ACHN = tested on: ACHN
MDA-MB-435 = tested on: MDA-MB-435
SF-268 = tested on: SF-268
A549 = tested on: A549
BT-549 = tested on: BT-549
TK-10 = tested on: TK-10
UACC-62 = tested on: UACC-62
CCRF-CEM = tested on: CCRF-CEM
COLO 205 = tested on: COLO 205
NCI-H226 = tested on: NCI-H226

Structure (SMILES) | GI50 (RPMI-8226) | GI50 (HT-29) | GI50 (OVCAR-3) | GI50 (MDA-MB-231) | GI50 (SN12C) | GI50 (CAKI-1) | GI50 (SNB-75) | GI50 (HL-60) | GI50 (SW-620) | GI50 (NCI-H23) | GI50 (ACHN) | GI50 (MDA-MB-435) | GI50 (SF-268) | GI50 (A549) | GI50 (BT-549) | GI50 (TK-10) | GI50 (UACC-62) | GI50 (CCRF-CEM) | GI50 (COLO 205) | GI50 (NCI-H226)
S=C(Nc1ccccn1)Nc1ccccc1Cl | > 100 µM (inactive) | > 61.1 µM (inactive) | > 67.1 µM (inactive) | 61.9 µM (inactive) | > 100 µM (inactive) | > 52.4 µM (inactive) | > 38.5 µM (inactive) | > 80.7 µM (inactive) | > 80.5 µM (inactive) | 49.9 µM (inactive) | 32.2 µM (inactive) | 69.5 µM (inactive) | > 43.8 µM (inactive) | 50.8 µM (inactive) | 52.8 µM (inactive) | > 68.7 µM (inactive) | > 52.4 µM (inactive) | > 100 µM (inactive) | > 100 µM (inactive) | –
O=C(NNC(=O)c1ccccc1O)c1ccco1 | 84.5 µM (inactive) | 51.5 µM (inactive) | 57.4 µM (inactive) | 60.5 µM (inactive) | > 100 µM (inactive) | > 100 µM (inactive) | 38.6 µM (inactive) | 28.9 µM (inactive) | 67.8 µM (inactive) | – | – | > 100 µM (inactive) | > 100 µM (inactive) | > 100 µM (inactive) | > 100 µM (inactive) | > 100 µM (inactive) | > 100 µM (inactive) | 31.3 µM (inactive) | 83 µM (inactive) | > 100 µM (inactive)
C=C1COC(O)(C2OCOC(C3CC(=O)NC(=O)C3)C2O)C1C (stereo not drawn) | 0.00269 µM (active) | 0.00278 µM (active) | 0.00356 µM (active) | 0.00847 µM (active) | 0.00224 µM (active) | 0.00468 µM (active) | 0.00494 µM (active) | 0.00303 µM (active) | 0.0043 µM (active) | 0.00381 µM (active) | 0.00533 µM (active) | 0.00333 µM (active) | 0.00511 µM (active) | 0.00221 µM (active) | 0.00565 µM (active) | 0.00895 µM (active) | 0.00429 µM (active) | 0.00106 µM (active) | 0.00244 µM (active) | 0.00619 µM (active)
C=C(c1nc2ccc(Cl)cc2[nH]c1=O)C(O)c1ccc(C(O)C(=O)c2nc3ccc(Cl)cc3[nH]c2=O)cc1 (stereo not drawn) | 9.06 µM (inactive) | > 100 µM (inactive) | > 100 µM (inactive) | > 100 µM (inactive) | > 100 µM (inactive) | > 100 µM (inactive) | > 100 µM (inactive) | 5.04 µM (inactive) | > 100 µM (inactive) | > 100 µM (inactive) | 61.7 µM (inactive) | > 100 µM (inactive) | > 100 µM (inactive) | > 100 µM (inactive) | > 100 µM (inactive) | > 100 µM (inactive) | > 79.6 µM (inactive) | 4.28 µM (inactive) | > 100 µM (inactive) | > 100 µM (inactive)
C=CCn1c(-c2cc(C(C)(C)C)c(O)c(C(C)(C)C)c2)cs/c1=N\C(P(=O)(O)O)P(=O)(O)O | > 100 µM (inactive) | > 100 µM (inactive) | > 100 µM (inactive) | 35.2 µM (inactive) | > 100 µM (inactive) | > 100 µM (inactive) | > 100 µM (inactive) | 19.9 µM (inactive) | > 100 µM (inactive) | > 100 µM (inactive) | > 100 µM (inactive) | > 100 µM (inactive) | > 100 µM (inactive) | > 100 µM (inactive) | > 100 µM (inactive) | > 100 µM (inactive) | – | – | > 100 µM (inactive) | > 100 µM (inactive)
COc1cc2ccc(C(C)NCC#N)cc2cc1OC (stereo not drawn) | > 100 µM (inactive) | 75.2 µM (inactive) | > 100 µM (inactive) | > 100 µM (inactive) | > 100 µM (inactive) | > 100 µM (inactive) | > 100 µM (inactive) | 46.5 µM (inactive) | > 100 µM (inactive) | – | > 100 µM (inactive) | > 100 µM (inactive) | > 100 µM (inactive) | > 100 µM (inactive) | > 100 µM (inactive) | > 100 µM (inactive) | > 100 µM (inactive) | – | > 100 µM (inactive) | > 100 µM (inactive)
COc1cc(O)c2c(=O)c(OC)c(-c3ccc4c(c3)OCO4)oc2c1 | > 100 µM (inactive) | > 100 µM (inactive) | – | > 37.3 µM (inactive) | > 100 µM (inactive) | – | 5.9 µM (inactive) | > 100 µM (inactive) | > 100 µM (inactive) | > 31.5 µM (inactive) | 17.5 µM (inactive) | > 100 µM (inactive) | 4.31 µM (inactive) | > 28.8 µM (inactive) | 4.04 µM (inactive) | 36.7 µM (inactive) | 78.9 µM (inactive) | > 100 µM (inactive) | > 100 µM (inactive) | > 57.9 µM (inactive)
COC(CNC(=O)C(C)NC(=O)CCc1ccccc1)OC (stereo not drawn) | > 100 µM (inactive) | > 100 µM (inactive) | – | > 100 µM (inactive) | > 100 µM (inactive) | > 100 µM (inactive) | > 100 µM (inactive) | > 100 µM (inactive) | > 100 µM (inactive) | > 100 µM (inactive) | > 100 µM (inactive) | > 100 µM (inactive) | > 100 µM (inactive) | > 100 µM (inactive) | > 100 µM (inactive) | > 100 µM (inactive) | > 100 µM (inactive) | > 100 µM (inactive) | > 100 µM (inactive) | > 100 µM (inactive)
N#Cc1c(O)c(/C=N/c2ncccn2)c(=O)n2c1[nH]c1ccccc12 | > 100 µM (inactive) | > 100 µM (inactive) | > 100 µM (inactive) | > 100 µM (inactive) | > 100 µM (inactive) | > 100 µM (inactive) | 44.1 µM (inactive) | > 100 µM (inactive) | > 100 µM (inactive) | > 100 µM (inactive) | – | > 100 µM (inactive) | > 100 µM (inactive) | > 100 µM (inactive) | > 100 µM (inactive) | > 100 µM (inactive) | – | > 100 µM (inactive) | > 100 µM (inactive) | > 100 µM (inactive)
N#CCCN(CCC#N)c1ccc(/C=N\c2ccc(F)cc2)cc1 | > 39.8 µM (inactive) | – | > 79.1 µM (inactive) | > 100 µM (inactive) | > 75 µM (inactive) | > 68.5 µM (inactive) | 73.6 µM (inactive) | 6.46 µM (inactive) | 19.3 µM (inactive) | > 100 µM (inactive) | 3.16 µM (inactive) | 17.3 µM (inactive) | 35.2 µM (inactive) | 43.1 µM (inactive) | > 100 µM (inactive) | > 24 µM (inactive) | 0.536 µM (active) | 20.8 µM (inactive) | 14 µM (inactive) | > 100 µM (inactive)
CCCCSC1=N/C(=C\c2ccccc2O)C(=O)N1 | 75.5 µM (inactive) | 70.6 µM (inactive) | > 100 µM (inactive) | 34 µM (inactive) | 79.1 µM (inactive) | > 100 µM (inactive) | > 100 µM (inactive) | 94.6 µM (inactive) | > 100 µM (inactive) | 42.7 µM (inactive) | 40.3 µM (inactive) | > 100 µM (inactive) | > 100 µM (inactive) | 20.7 µM (inactive) | 49.4 µM (inactive) | 76.9 µM (inactive) | 44.3 µM (inactive) | – | > 100 µM (inactive) | > 100 µM (inactive)
CCOc1ccc(/N=C/c2ccnc3ccccc23)cc1 | 6.53 µM (inactive) | 27.3 µM (inactive) | 31 µM (inactive) | 20.7 µM (inactive) | 29 µM (inactive) | 74.3 µM (inactive) | 29.2 µM (inactive) | 2.05 µM (inactive) | 4.56 µM (inactive) | 49.3 µM (inactive) | 58.2 µM (inactive) | 42.7 µM (inactive) | 27.2 µM (inactive) | > 86.3 µM (inactive) | 34.4 µM (inactive) | 92.3 µM (inactive) | 60.8 µM (inactive) | 2.63 µM (inactive) | 81.3 µM (inactive) | 73.6 µM (inactive)
O=C1CC(c2cccc([N+](=O)[O-])c2)C2(C(=O)NC(=O)NC2=O)C(c2cccc([N+](=O)[O-])c2)C1 (stereo not drawn) | 31.5 µM (inactive) | 75.9 µM (inactive) | 13.9 µM (inactive) | > 100 µM (inactive) | > 100 µM (inactive) | – | > 100 µM (inactive) | > 100 µM (inactive) | > 100 µM (inactive) | > 100 µM (inactive) | > 100 µM (inactive) | > 100 µM (inactive) | 19.7 µM (inactive) | > 100 µM (inactive) | > 100 µM (inactive) | – | 98.4 µM (inactive) | 32.9 µM (inactive) | > 100 µM (inactive) | 58.2 µM (inactive)
NC(=O)C1CCCN1C(=O)N(CCCl)N=O (stereo not drawn) | > 100 µM (inactive) | > 100 µM (inactive) | > 100 µM (inactive) | > 100 µM (inactive) | > 100 µM (inactive) | > 100 µM (inactive) | 14.9 µM (inactive) | > 100 µM (inactive) | > 100 µM (inactive) | > 100 µM (inactive) | > 100 µM (inactive) | > 100 µM (inactive) | 74.1 µM (inactive) | > 100 µM (inactive) | > 100 µM (inactive) | > 100 µM (inactive) | > 100 µM (inactive) | > 100 µM (inactive) | > 100 µM (inactive) | > 100 µM (inactive)
Clc1ccccc1-c1nc(-c2ccncc2)no1 [PIFEXOLE] | 44.2 µM (inactive) | 66.1 µM (inactive) | 44.9 µM (inactive) | 94.4 µM (inactive) | 38.2 µM (inactive) | 57.3 µM (inactive) | 89.3 µM (inactive) | 13.4 µM (inactive) | 52.7 µM (inactive) | 49.4 µM (inactive) | 88.1 µM (inactive) | 48.6 µM (inactive) | 59.6 µM (inactive) | 69 µM (inactive) | 42.3 µM (inactive) | 42.8 µM (inactive) | 73.6 µM (inactive) | – | 40.8 µM (inactive) | 98.9 µM (inactive)

— ChEMBL document CHEMBL1201862, “PubChem BioAssay data set” (2004)
